Measured values published in ChEMBL document CHEMBL5131452, “Cell-based screening of extracts of natural sources to search for inhibitors of the ubiquitin-proteasome system and identification of proteasome inhibitors from the fungus Remotididymella sp” (Bioorg Med Chem Lett, 2022).
pIC50: −log10 of the molar value. Activity calls are given as the source filed them. The calls are words filed in the database; no cut-off is given here.

Assays:
HeLa [1] = assay: Cytotoxicity against human HeLa cells expressing ODD-luciferase at 16 uM by MTT assay; assay type: toxicity, cell-based
HeLa [2] = assay: Inhibition of UPS-mediated proteolysis in human HeLa cells expressing ODD-luciferase assessed as increase in luminescence at 2 to 16 uM using D-luciferin as substrate incubated for 4 hrs by luciferase reporter gene assay; assay type: cell-based; details: dose 2-16 µM
[3] = target: T1, Proteasome Macropain subunit MB1 (Homo sapiens, UniProt P28074); assay: Inhibition of human constitutive proteasome subunit beta type-5 in human erythrocytes using fluorogenic substrate by UV-spectrometry; assay type: cell-based, Erythrocyte
T1 sequence (P28074 whole entry): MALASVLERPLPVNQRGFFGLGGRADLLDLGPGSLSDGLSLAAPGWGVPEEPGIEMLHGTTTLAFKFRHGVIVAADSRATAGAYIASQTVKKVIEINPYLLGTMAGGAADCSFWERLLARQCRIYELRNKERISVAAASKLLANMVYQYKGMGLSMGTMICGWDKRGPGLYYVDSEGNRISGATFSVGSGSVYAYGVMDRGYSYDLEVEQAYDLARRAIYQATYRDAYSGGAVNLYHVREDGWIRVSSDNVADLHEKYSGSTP

[4] = target: T2, Proteasome subunit beta type-8 (Homo sapiens, UniProt P28062); assay: Inhibition of human proteasome subunit beta type-5i using fluorogenic substrate by UV-spectrometry
T2 sequence (P28062 whole entry): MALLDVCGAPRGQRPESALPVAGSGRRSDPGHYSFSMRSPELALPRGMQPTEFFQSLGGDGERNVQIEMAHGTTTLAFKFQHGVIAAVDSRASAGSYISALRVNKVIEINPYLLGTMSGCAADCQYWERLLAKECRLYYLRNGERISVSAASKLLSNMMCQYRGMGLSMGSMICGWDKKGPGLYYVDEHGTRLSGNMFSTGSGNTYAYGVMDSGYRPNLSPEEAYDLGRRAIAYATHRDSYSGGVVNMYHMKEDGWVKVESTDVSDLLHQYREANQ

[5] = target: T3, Proteasome subunit beta type-9 (Homo sapiens, UniProt P28065); assay: Inhibition of human proteasome subunit beta type-1i in using fluorogenic substrate by UV-spectrometry
T3 sequence (P28065 whole entry): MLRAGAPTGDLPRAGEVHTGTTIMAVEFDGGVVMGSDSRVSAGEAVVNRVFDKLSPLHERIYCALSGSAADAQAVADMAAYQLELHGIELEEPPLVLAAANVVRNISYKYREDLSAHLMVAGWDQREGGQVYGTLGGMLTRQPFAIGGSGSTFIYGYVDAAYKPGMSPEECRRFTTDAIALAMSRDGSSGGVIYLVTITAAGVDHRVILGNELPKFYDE

[6] = target: T4, Proteasome subunit beta type-10 (Homo sapiens, UniProt P40306); assay: Inhibition of human proteasome subunit beta type-2i using fluorogenic substrate by UV-spectrometry
T4 sequence (P40306 whole entry): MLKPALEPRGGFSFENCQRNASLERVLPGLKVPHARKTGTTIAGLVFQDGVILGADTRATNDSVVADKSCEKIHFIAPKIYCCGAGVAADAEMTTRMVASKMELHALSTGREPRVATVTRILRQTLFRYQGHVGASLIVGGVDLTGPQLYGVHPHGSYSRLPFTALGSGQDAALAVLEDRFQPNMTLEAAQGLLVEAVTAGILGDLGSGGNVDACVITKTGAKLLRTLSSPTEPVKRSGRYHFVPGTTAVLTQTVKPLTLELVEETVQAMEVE

HeLa [7] = assay: Inhibition of UPS-mediated proteolysis in human HeLa cells assessed as increase in ubiquitinated proteins at 2 to 24 uM incubated for 24 hrs by western blot analysis; assay type: cell-based; details: dose 2-24 µM
HeLa [8] = assay: Inhibition of UPS-mediated proteolysis in human HeLa cells expressing ODD-luciferase assessed as fold change in increase in luminescence at 2 uM using D-luciferin as substrate incubated for 4 hrs by luciferase reporter gene assay; assay type: cell-based

pIC50 [3]	pIC50 [4]	pIC50 [5]	pIC50 [6]	Compound	Activity (HeLa [1])	inhibition (HeLa [2])	inhibition (HeLa [7])	fold change (FC) (HeLa [8])
4.66	4.70	< 4.30	4.48	CCC(C)/C=C(\C)c1cc2c(cn1)C(=O)C1=C(N)C(=O)C(OC)=CC1=C2 (centres undefined)	Toxic	Active		
4.34	4.30	< 4.30	4.52	CCC(C)/C=C(\C)C1=Cc2cc3c(c(O)c2CO1)C(=O)C(O)(CC(C)=O)C(OC)=C3 (centres undefined)		Active		
				CCC(C)/C=C(\C)C1=Cc2cc3c(c(O)c2CO1)C(=O)C(=O)C(OC)=C3 (centres undefined)	Toxic	Active	Active	2.5
4.80	4.40	< 4.30	4.37	CCC(C)/C=C(\C)c1cc2c(cn1)C(=O)c1c(cc(OC)c(O)c1O)C2=O (centres undefined)				
